Patent US7300946B2, “N-(substituted arylmethyl)-4-(disubstituted methyl) piperidines and pyridines” (Bayer CropScience AG, priority 2002, dated 2007)

System: tobacco budworm (Heliothis virescens [Fabricius])
Test: surface-treated diet test against the tobacco budworm
Format: in vivo
Conditions: tobacco budworm second instar larvae, 0.25 millimoles of candidate insecticide on the surface of the diet, five-day exposure; for Percent Mortality: compared to total number of insects infested; for Percent Growth Inhibition: inhibition of insect weight relative to untreated controls
In short: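 Wheat germ artificial diet surface-treated with 40 µL of 50 mM DMSO stock diluted 1:7 in 1:1 water/acetone (0.25 millimolar on diet), or sub-multiples for rate tests. One second-instar larva per well, 25° C, 60% RH, 5 days; percent weight inhibition vs DMSO controls and percent mortality.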

SMILES: CCON=Cc1ccc(CN2CCC(C(OC(=O)Nc3ccc(Cl)cc3)c3ccc(C(F)(F)F)cc3)CC2)cc1 (stereo not drawn) [Compound 182]
- Percent Mortality (surface-treated diet): 100%
- Percent Growth Inhibition (surface-treated diet): 100%

SMILES: CCON=Cc1ccc(CN2CCC(C(OC(=O)Nc3ccc(Cl)cc3)c3ccc(Cl)cc3)CC2)cc1 (stereo not drawn) [Compound 523]
- Percent Mortality (surface-treated diet): 100%
- Percent Growth Inhibition (surface-treated diet): 100%

SMILES: CCn1nnc(-c2ccc(CN3CCC(C(OC(=O)Nc4cccc(C(F)(F)F)c4)c4ccc(C(F)(F)F)cc4)CC3)cc2)n1 (stereo not drawn) [Compound 288]
- Percent Mortality (surface-treated diet): 100%
- Percent Growth Inhibition (surface-treated diet): 100%

SMILES: CCn1nnc(-c2ccc(CN3CCC(C(OC(=S)Nc4ccc(C(F)(F)F)cc4)c4ccc(OC(F)(F)F)cc4)CC3)cc2)n1 (stereo not drawn) [Compound 302]
- Percent Mortality (surface-treated diet): 100%
- Percent Growth Inhibition (surface-treated diet): 100%

SMILES: Cn1nnc(-c2ccc(CN3CCC(C(OC(=O)Nc4ccc(F)cc4)c4ccc(Cl)cc4)CC3)cc2)n1 (stereo not drawn) [Compound 274]
- Percent Mortality (surface-treated diet): 100%
- Percent Growth Inhibition (surface-treated diet): 100%

SMILES: [O-][N+]1(Cc2ccc(-c3ccccn3)cc2)CCC(=C(c2ccc(C(F)(F)F)cc2)c2ccc(C(F)(F)F)cc2)CC1 (stereo not drawn) [Compound 840]
- Percent Mortality: 100%
- Percent Growth Inhibition: 100%

SMILES: CCOC(=O)N(C)c1ccc(CN2CCC(=C(c3ccc(C(F)(F)F)cc3)c3ccc(C(F)(F)F)cc3)CC2)cc1 [Compound 56]
- Percent Mortality (surface-treated diet): 100%
- Percent Growth Inhibition (surface-treated diet): 100%

SMILES: Cn1nnc(-c2ccc(CN3CCC(C(NC(=O)Oc4ccc(F)cc4)c4ccc(OC(F)(F)F)cc4)CC3)cc2)n1 (stereo not drawn) [Compound 353]
- Percent Mortality (surface-treated diet): 17%
- Percent Growth Inhibition (surface-treated diet): 87%

SMILES: FC(F)(F)Oc1ccc(C(Oc2ccc(C(F)(F)F)cc2)C2CCN(Cc3ccc(Oc4ncccn4)cc3)CC2)cc1 (stereo not drawn) [Compound 456]
- Percent Mortality (surface-treated diet): 17%
- Percent Growth Inhibition (surface-treated diet): 100%

SMILES: FC(F)(F)c1ccc(C(=C2CCN(Cc3ccc(Oc4ncccn4)cc3)CC2)c2cccc(C(F)(F)F)c2)cc1 [Compound 822]
- Percent Mortality: 100%
- Percent Growth Inhibition: 100%

SMILES: CC(=O)Nc1ccc(CN2CCC(=C(c3ccc(C(F)(F)F)cc3)c3ccc(C(F)(F)F)cc3)CC2)cc1 [Compound 52]
- Percent Mortality (surface-treated diet): 33%
- Percent Growth Inhibition (surface-treated diet): 100%

SMILES: CCCOc1ccc(CN2CCC(C(OC(=O)Nc3ccc(Cl)cc3)c3ccc(Cl)cc3)CC2)cc1 (stereo not drawn) [Compound 470]
- Percent Mortality (surface-treated diet): 100%
- Percent Growth Inhibition (surface-treated diet): 100%

SMILES: O=C(Nc1ccc(F)cc1)OC(c1ccc(C(F)(F)F)cc1)C1CCN(Cc2ccc(-n3cccn3)cc2)CC1 (stereo not drawn) [Compound 555]
- Percent Mortality (surface-treated diet): 33%
- Percent Growth Inhibition (surface-treated diet): 100%

SMILES: CC(C)NC(=O)OC(c1ccc(C(F)(F)F)cc1)C1CCN(Cc2ccc(Oc3ccccn3)cc2)CC1 (stereo not drawn) [Compound 776]
- Percent Mortality: 100%
- Percent Growth Inhibition: 100%

SMILES: O=C(Nc1cc(F)cc(F)c1)OC(c1ccc(C(F)(F)F)cc1)C1CCN(Cc2ccc(Oc3cc(C(F)(F)F)ccn3)cc2)CC1 (stereo not drawn) [Compound 690]
- Percent Mortality (surface-treated diet): 100%
- Percent Growth Inhibition (surface-treated diet): 100%

SMILES: N#Cc1ccc(Oc2ccc(CN3CCC(C(OC(=O)Nc4cc(F)cc(F)c4)c4ccc(OC(F)(F)F)cc4)CC3)cc2)nc1 (stereo not drawn) [Compound 711]
- Percent Mortality: 100%
- Percent Growth Inhibition: 100%

SMILES: O=C(Nc1cccc(F)c1)OC(c1ccc(C(F)(F)F)cc1)C1CCN(Cc2ccc(Oc3ccccn3)cc2)CC1 (stereo not drawn) [Compound 674]
- Percent Mortality (surface-treated diet): 100%
- Percent Growth Inhibition (surface-treated diet): 100%

SMILES: FC(F)(F)c1ccc(C(=C2CCN(Cc3ccc(Nc4ccccn4)cc3)CC2)c2ccc(C(F)(F)F)cc2)cc1 [Compound 811]
- Percent Mortality: 100%
- Percent Growth Inhibition: 100%

SMILES: O=C(Nc1cc(F)cc(F)c1)OC(c1ccc(C(F)(F)F)cc1)C1CC[N+]([O-])(Cc2ccc(Oc3cccc(Cl)n3)cc2)CC1 (stereo not drawn) [Compound 757]
- Percent Mortality: 100%
- Percent Growth Inhibition: 100%

SMILES: Cn1nnc(-c2ccc(CN3CCC(C(NC(=O)c4ccc(I)cc4)c4ccc(OC(F)(F)F)cc4)CC3)cc2)n1 (stereo not drawn) [Compound 329]
- Percent Mortality (surface-treated diet): 50%
- Percent Growth Inhibition (surface-treated diet): 99%

SMILES: CC(C)OC(=O)c1ccc(CN2CCC(C(OC(=O)Nc3ccc(Cl)cc3)c3ccc(C(F)(F)F)cc3)CC2)cc1 (stereo not drawn) [Compound 492]
- Percent Mortality (surface-treated diet): 100%
- Percent Growth Inhibition (surface-treated diet): 100%

SMILES: CCn1nnc(-c2ccc(CN3CCC(=C(c4ccc(Cl)cc4)c4ccc(Cl)cc4)CC3)cc2)n1 [Compound 77]
- Percent Mortality (surface-treated diet): 100%
- Percent Growth Inhibition (surface-treated diet): 100%

SMILES: O=C(Nc1ccc(Cl)cc1)OC(c1ccc(Cl)c(Cl)c1)C1CCN(Cc2ccc(Oc3ccccn3)cc2)CC1 (stereo not drawn) [Compound 645]
- Percent Mortality (surface-treated diet): 100%
- Percent Growth Inhibition (surface-treated diet): 100%

SMILES: O=C(Nc1cc(F)cc(F)c1)OC(c1ccc(F)cc1)C1CCN(Cc2ccc(Oc3ccccn3)cc2)CC1 (stereo not drawn) [Compound 641]
- Percent Mortality (surface-treated diet): 100%
- Percent Growth Inhibition (surface-treated diet): 100%

SMILES: CCCOc1ccc(CN2CCC(C(OC(=O)Nc3cc(F)cc(F)c3)c3ccc(Cl)c(Cl)c3)CC2)cc1 (stereo not drawn) [Compound 482]
- Percent Mortality (surface-treated diet): 100%
- Percent Growth Inhibition (surface-treated diet): 100%

SMILES: CCON=Cc1ccc(CN2CCC(C(OC(=O)Nc3ccc(Cl)c(C(F)(F)F)c3)c3ccc(C(F)(F)F)cc3)CC2)cc1 (stereo not drawn) [Compound 207]
- Percent Mortality (surface-treated diet): 100%
- Percent Growth Inhibition (surface-treated diet): 100%

SMILES: CCCOc1ccc(CN2CCC(C(OC(=O)Nc3ccc(C(F)(F)F)cc3)c3ccc(Cl)c(Cl)c3)CC2)cc1 (stereo not drawn) [Compound 484]
- Percent Mortality (surface-treated diet): 100%
- Percent Growth Inhibition (surface-treated diet): 100%

SMILES: O=C(Nc1ccc(F)c(F)c1F)OC(c1ccc(C(F)(F)F)cc1)C1CCN(Cc2ccc(Oc3ccccn3)cc2)CC1 (stereo not drawn) [Compound 242]
- Percent Mortality (surface-treated diet): 100%
- Percent Growth Inhibition (surface-treated diet): 100%

SMILES: O=C(Nc1ccc(Cl)cc1)OC(c1ccc(C(F)(F)F)cc1)C1CCN(Cc2ccc(Oc3ccccn3)cc2)CC1 (stereo not drawn) [Compound 666]
- Percent Mortality (surface-treated diet): 100%
- Percent Growth Inhibition (surface-treated diet): 100%

SMILES: Cc1ccc(CNC(c2ccc(OC(F)(F)F)cc2)C2CCN(Cc3ccc(-c4nnn(C)n4)cc3)CC2)cc1 (stereo not drawn) [Compound 317]
- Percent Mortality (surface-treated diet): 100%
- Percent Growth Inhibition (surface-treated diet): 100%

SMILES: FC(F)(F)c1ccc(C(=C2CC3CCCC(C2)N3Cc2ccc(Oc3ccccn3)cc2)c2ccc(C(F)(F)F)cc2)cc1 [Compound 117, 2-{4-[(9-aza-3-{bis[4-(trifluoromethyl)phenyl]methylene}bicyclo[3.3.1]non-9-yl)methyl]phenoxy}pyridine]
- Percent Mortality (surface-treated diet): 100%
- Percent Growth Inhibition (surface-treated diet): 100%

SMILES: N#Cc1ccc(Oc2ccc(CN3CCC(C(OC(=O)Nc4cc(F)cc(F)c4)c4ccc(C(F)(F)F)cc4)CC3)cc2)nc1 (stereo not drawn) [Compound 688]
- Percent Mortality (surface-treated diet): 100%
- Percent Growth Inhibition (surface-treated diet): 100%

SMILES: CCn1nnc(-c2ccc(CN3CCC(C(OC(=O)Nc4ccc(C(F)(F)F)cc4)c4ccc(OC)cc4)CC3)cc2)n1 (stereo not drawn) [Compound 606]
- Percent Mortality (surface-treated diet): 100%
- Percent Growth Inhibition (surface-treated diet): 100%

SMILES: CC(C)OC(=O)Nc1ccc(CN2CCC(C(OC(=O)Nc3cc(F)cc(F)c3)c3ccc(OC(F)(F)F)cc3)CC2)cc1 (stereo not drawn) [Compound 515]
- Percent Mortality (surface-treated diet): 100%
- Percent Growth Inhibition (surface-treated diet): 100%

SMILES: CCCOc1ccc(CN2CCC(C(OC(=O)Nc3cc(F)cc(F)c3)c3ccc(F)cc3)CC2)cc1 (stereo not drawn) [Compound 479]
- Percent Mortality (surface-treated diet): 100%
- Percent Growth Inhibition (surface-treated diet): 100%

SMILES: CC(C)OC(=O)Nc1ccc(CN2CCC(C(OC(=O)Nc3cccc(F)c3)c3ccc(Cl)cc3)CC2)cc1 (stereo not drawn) [Compound 501]
- Percent Mortality (surface-treated diet): 100%
- Percent Growth Inhibition (surface-treated diet): 100%

SMILES: O=C(Nc1cc(F)cc(F)c1)OC(c1ccc(C(F)(F)F)cc1)C1CC[N+]([O-])(Cc2ccc(Oc3ccccc3F)cc2)CC1 (stereo not drawn) [Compound 750]
- Percent Mortality: 100%
- Percent Growth Inhibition: 100%

SMILES: Cn1nnc(-c2ccc(CN3CCC(C(NC(=O)Nc4ccc(Cl)cc4)c4ccc(OC(F)(F)F)cc4)CC3)cc2)n1 (stereo not drawn) [Compound 336]
- Percent Mortality (surface-treated diet): 100%
- Percent Growth Inhibition (surface-treated diet): 100%

SMILES: O=C(Nc1ccc(F)cc1F)OC(c1ccc(C(F)(F)F)cc1)C1CCN(Cc2ccc(Oc3ccccn3)cc2)CC1 (stereo not drawn) [Compound 679]
- Percent Mortality (surface-treated diet): 100%
- Percent Growth Inhibition (surface-treated diet): 100%

SMILES: CCn1nnc(-c2ccc(CN3CCC(C(OC(=O)Nc4ccc(Cl)cc4)c4cc(F)cc(F)c4)CC3)cc2)n1 (stereo not drawn) [Compound 590]
- Percent Mortality (surface-treated diet): 100%
- Percent Growth Inhibition (surface-treated diet): 100%

SMILES: CCn1nnc(-c2ccc(CN3CCC(C(OC(=O)Nc4ccc(Cl)c(Cl)c4)c4ccc(-c5ccccc5)cc4)CC3)cc2)n1 (stereo not drawn) [Compound 612]
- Percent Mortality (surface-treated diet): 0%
- Percent Growth Inhibition (surface-treated diet): 48%

SMILES: FC(F)(F)c1ccc(OC(c2ccc(C(F)(F)F)cc2)C2CCN(Cc3ccc(Oc4ccccn4)cc3)CC2)cc1 (stereo not drawn) [Compound 455]
- Percent Mortality (surface-treated diet): 100%
- Percent Growth Inhibition (surface-treated diet): 100%
